# According to US7534897B2 (Shionogi & Co., Ltd., priority 2002, dated 2009):
# Experiments:
# CRTH2 = biological target: T1, CRTH2 (Homo sapiens, UniProt Q9Y5Y4); assay: Binding activity to CRTH2 ([3H]PGD2 binding assay); settings: membrane fraction of CRTH2-transfected K562 cells, read-out: CRTH2 inhibitory activity IC50
# T1 construct: expressed in transfected cells; host or cells: K562 cells (membrane fraction)
# T1 sequence (Q9Y5Y4 1-395): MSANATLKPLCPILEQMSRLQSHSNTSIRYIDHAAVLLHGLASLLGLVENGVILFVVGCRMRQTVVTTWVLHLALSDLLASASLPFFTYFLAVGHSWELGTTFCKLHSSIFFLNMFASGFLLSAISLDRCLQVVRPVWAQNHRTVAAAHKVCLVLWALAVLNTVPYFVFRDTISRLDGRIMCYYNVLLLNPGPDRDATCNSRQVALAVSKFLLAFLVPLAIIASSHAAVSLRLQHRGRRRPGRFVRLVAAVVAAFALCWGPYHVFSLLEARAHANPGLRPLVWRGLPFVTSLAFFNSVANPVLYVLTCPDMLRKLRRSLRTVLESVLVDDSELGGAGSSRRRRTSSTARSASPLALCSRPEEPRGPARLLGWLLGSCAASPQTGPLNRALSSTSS
# Description: Experiment 1 Binding Activity to CRTH2
# The membrane fraction prepared with CRTH2-transfected K562 cells was used for a binding assay. To a binding-reaction solution (50 mM Tris/HCl, pH 7.4, 10 mM MgCl2) the membrane fraction (0.06 mg) and 3 nM [^3H]PGD2 (172 Ci/mmol) were added, and the mixture was reacted at room temperature for 60 min. After the reaction, the mixture was filtered through a glass fiber filter paper and washed several times with cooled physiological saline, then the radioactivity retained on the filter paper was measured. The specific-binding ratio was calculated by subtracting the non-specific binding ratio which is the radioactivity similarly measured in the presence of 10 μM PGD2 from the total binding.
# [1] = biological target: T2, human CRTH2-transfected K562 cells (Homo sapiens, UniProt Q9Y5Y4); assay: Antagonistic activity to CRTH2: calcium mobilization assay induced by PGD2; type: cell-based; settings: compound at 1 μM, percent inhibition of PGD2-induced calcium mobilization
# T2 construct: expressed in transfected cells; host or cells: K562 cells
# T2 sequence (Q9Y5Y4 1-395): T1 sequence (Q9Y5Y4 1-395)
# Description: Experiment 2 Evaluation of Antagonistic Activity to CRTH2
# To evaluate the antagonistic activity of compounds against CRTH2, calcium mobilization assay induced by PGD2 was performed using CRTH2 transfectants.
# The human CRTH2-transfected K562 cells were suspended at 2×10^6 cells/ml in assay buffer (10 mM HEPES buffer, pH 7.4, 0.1% Bovine serum albumin), and were incubated with Fura-2 AM (2 μM) for 60 min at room temperature. After washing cells were resuspended again with assay buffer, incubated at 37° C., and then treated with various concentrations of compounds for 2 min. The emitted fluorescence was measured on a calcium analyzer (CAF-110) after addition of PGD2.
SMILES,IC50 (CRTH2),melting point,antagonistic activity to CRTH2 (% INH) [1]
CC(C)N(CCc1cn(CC(=O)O)c2ccccc12)S(=O)(=O)c1ccc(F)cc1 [Ia-48],57 nM,–,–
Cc1c(CCN(Cc2ccccc2)S(=O)(=O)c2ccc(F)cc2)c2ccccc2n1CC(=O)O [Ia-55],42 nM,–,–
CCc1c(C)n(CC(=O)O)c2ccc(N(C)S(=O)(=O)c3ccc(F)cc3)cc12 [Ik-5],19 nM,161 to 167 °C,–
COc1ccc(S(=O)(=O)N(C)c2ccc3c(c2)c2c(n3CC(=O)O)CCCCC2)cc1 [Ig-14],8.3 nM,144 to 150 °C,–
CN(CCc1cn(CC(=O)O)c2ccc(Cl)cc12)S(=O)(=O)c1ccc(F)cc1 [Ia-44],23 nM,–,–
O=C(O)Cn1cc(CCN(Cc2cccs2)S(=O)(=O)c2ccc(F)cc2)c2ccccc21 [Ia-65],27 nM,–,–
O=C(O)Cn1cc(C2CCC(NS(=O)(=O)c3ccc(F)cc3)C2)c2ccccc21 (stereo not drawn) [Ij-1],26 nM,–,–
CN(c1ccc2c(c1)c1c(n2CC(=O)O)CCCC1=O)S(=O)(=O)c1ccc(F)cc1 [Ig-4],7.8 nM,218 to 220 °C,–
Cc1c(C(C)CNS(=O)(=O)c2ccc(F)cc2)c2ccccc2n1CC(=O)O (stereo not drawn) [If-4],16 nM,–,–
"O=C(O)Cn1c2c(c3ccccc31)CC(NS(=O)(=O)c1cccs1)CC2 (single isomer, unassigned; (+)) [(+)-Ib-20]",7.9 nM,–,–
CN(CCc1cn(CC(=O)O)c2ccc(F)cc12)S(=O)(=O)c1ccc(F)cc1 [Ia-45],19 nM,–,–
Cc1cc2cc(N(C)S(=O)(=O)c3ccc(F)cc3)ccc2n1CC(=O)O [Ik-2],86 nM,206 to 208 °C (dec.),–
Cc1c(CCNS(=O)(=O)c2ccc(F)cc2)c2ccccc2n1CC(=O)O [Ia-20],22 nM,–,–
COc1ccc2c(c1)c(CCN(Cc1ccccc1)S(=O)(=O)c1ccc(F)cc1)cn2CC(=O)O [Ia-57],57 nM,–,–
O=C(O)Cn1c2ccccc2c2cc(NS(=O)(=O)c3ccc(F)cc3)ccc21 [Ie-2],39 nM,139 to 141 °C,–
O=C(O)Cn1cc(CCNS(=O)(=O)c2ccc(-c3ccc(F)cc3)cc2)c2ccccc21 [Ia-15],37 nM,–,–
Cc1c(C(C)C)c2cc(NS(=O)(=O)c3ccc(F)cc3)ccc2n1CC(=O)O [Ik-4],47 nM,165 to 171 °C,–
CS(=O)(=O)NC(=O)Cn1cc(CCN(Cc2ccccc2)S(=O)(=O)c2ccc(F)cc2)c2ccccc21 [Ia-52],24 nM,–,–
CN(C1Cc2c(n(CC(=O)O)c3ccccc23)C1)S(=O)(=O)c1ccc(F)cc1 (stereo not drawn) [Ib-6],55 nM,–,–
Cc1c(CCN(C)S(=O)(=O)c2ccc(F)cc2)c2ccccc2n1CC(=O)O [Ia-41],34 nM,–,–

SMILES,IC50 (CRTH2),melting point,antagonistic activity to CRTH2 (% INH) [1]
Cc1ccccc1CN(CCc1cn(CC(=O)O)c2ccccc12)S(=O)(=O)c1ccc(F)cc1 [Ia-61],45 nM,–,–
O=C(O)Cn1cc(C2CCC(N(Cc3ccccc3)S(=O)(=O)c3ccc(F)cc3)C2)c2ccccc21 (stereo not drawn) [Ij-3],53 nM,–,–
O=C(O)Cn1cc(CCN(Cc2ccccc2)S(=O)(=O)c2ccc(F)cc2)c2ccccc21 [Ia-51],20 nM,–,91 % INH
O=C(O)Cn1cc(CCN(Cc2ccc([N+](=O)[O-])cc2)S(=O)(=O)c2ccc(F)cc2)c2ccccc21 [Ia-63],54 nM,–,–
COc1ccc(CN(CCc2cn(CC(=O)O)c3ccccc23)S(=O)(=O)c2ccc(F)cc2)cc1 [Ia-62],49 nM,108 to 110 °C,–
CN(c1ccc2c(c1)c1c(n2CC(=O)O)CCCCC1)S(=O)(=O)c1ccc(O)cc1 [Ig-16],3.6 nM,186 to 189 °C,–
O=C(O)Cn1cc(C2CCN(S(=O)(=O)c3ccc(F)cc3)C2)c2ccccc21 (stereo not drawn) [Ic-14],5.5 nM,155 to 156 °C,–
O=C(O)Cn1cc(CCN(CCc2ccccc2)S(=O)(=O)c2ccc(F)cc2)c2ccccc21 [Ia-66],37 nM,–,–
CC1CCc2c(c3cc(N(Cc4ccccc4)S(=O)(=O)c4ccc(F)cc4)ccc3n2CC(=O)O)C1 (stereo not drawn) [Ih-6],34 nM,176 to 178 °C,–
O=C(O)Cn1cc(CCN(Cc2ccccc2)S(=O)(=O)c2ccc(F)cc2)c2cc(F)ccc21 [Ia-59],23 nM,–,–
O=C(O)Cn1c2ccccc2c2cc(N(Cc3ccccc3)S(=O)(=O)c3ccc(F)cc3)ccc21 [Ie-8],26 nM,212 to 213 °C,–
O=C(O)Cn1c2c(c3ccccc31)CC(NS(=O)(=O)c1ccsc1)CC2 (stereo not drawn) [Ib-21],12 nM,–,–
O=C(O)Cn1cc(C(CNS(=O)(=O)c2ccc(F)cc2)c2ccccc2)c2ccccc21 (stereo not drawn) [If-9],12 nM,117 to 120 °C,–
O=C(O)Cn1cc(C2=CCCN(S(=O)(=O)c3ccc(F)cc3)C2)c2ccccc21 [Ic-2],21 nM,142 to 143 °C,–
"Cc1ccc(S(=O)(=O)N(C)C2CCc3c(c4ccccc4n3CC(=O)O)C2)cc1 (single isomer, unassigned; (+)) [(+)-Ib-27]",6.2 nM,–,–
"CN(C1CCc2c(c3ccccc3n2CC(=O)O)C1)S(=O)(=O)c1cccs1 (single isomer, unassigned; (+)) [(+)-Ib-29]",4.9 nM,–,–
CN(c1ccc2c(c1)c1c(n2CC(=O)O)CCCC1)S(=O)(=O)c1ccc(F)cc1 [Ih-2],–,–,91 % INH
CN(CCc1cn(CC(=O)O)c2ccccc12)S(=O)(=O)c1ccc(F)cc1 [Ia-39],45 nM,–,–
CCN(c1ccc2c(c1)c1c(n2CC(=O)O)CCCCC1)S(=O)(=O)c1ccc(F)cc1 [Ig-15],7.5 nM,–,–
"Cc1ccc(S(=O)(=O)NC2CCc3c(c4ccccc4n3CC(=O)O)C2)cc1 (single isomer, unassigned; (+)) [(+)-Ib-18]",13 nM,–,–

SMILES,IC50 (CRTH2),melting point,antagonistic activity to CRTH2 (% INH) [1]
O=C(O)Cn1cc(CCNS(=O)(=O)c2ccc(F)cc2)c2cc(F)ccc21 [Ia-36],15 nM,–,89 % INH
CN(C1CCC(c2cn(CC(=O)O)c3ccccc23)C1)S(=O)(=O)c1ccc(F)cc1 (stereo not drawn) [Ij-2],53 nM,–,–
O=C(O)Cn1c2c(c3cc(N(Cc4ccccc4)S(=O)(=O)c4ccc(F)cc4)ccc31)CCCC2 [Ih-3],33 nM,198 to 202 °C,–
CN(c1ccc2c(c1)c1c(n2CC(=O)O)CCSC1)S(=O)(=O)c1ccc(F)cc1 [Ig-3],9.7 nM,214 to 217 °C,–
Cc1c(C)n(CC(=O)O)c2ccc(N(C)S(=O)(=O)c3ccc(F)cc3)cc12 [Ik-1],48 nM,165 to 179 °C,–
O=C(O)Cn1cc(C2CCCN(S(=O)(=O)c3ccc(F)cc3)C2)c2ccccc21 (stereo not drawn) [Ic-6],4.5 nM,189 to 194 °C (dec.),100 % INH
O=C(O)Cn1c2c(c3cc(NS(=O)(=O)c4ccc(F)cc4)ccc31)CCCCC2 [Ig-11],10 nM,209 to 211 °C,–
C=CCN(CCc1cn(CC(=O)O)c2ccccc12)S(=O)(=O)c1ccc(F)cc1 [Ia-47],51 nM,–,–
O=C(O)Cn1cc(CCNS(=O)(=O)c2ccc(F)cc2)c2cc(Cl)ccc21 [Ia-32],18 nM,–,–
O=C(O)Cn1c2c(c3cc(NS(=O)(=O)c4ccc(F)cc4)ccc31)CCCCCC2 [Ig-18],19 nM,193 to 197 °C,–
CN(c1ccc2c(c1)c1ccccc1n2CC(=O)O)S(=O)(=O)c1ccc(F)cc1 [Ie-5],18 nM,188 to 191 °C,–
"O=C(O)Cn1c2c(c3ccccc31)CC(NS(=O)(=O)c1ccc(F)cc1)CC2 (single isomer, unassigned; (+)) [(+)-Ib-16]",5.9 nM,–,–
CCc1c(C)n(CC(=O)O)c2ccc(NS(=O)(=O)c3ccc(F)cc3)cc12 [Ik-3],51 nM,172 to 178 °C,–
O=C(O)Cn1cc(CCN(Cc2ccccc2)S(=O)(=O)c2ccc(F)cc2)c2cc(Cl)ccc21 [Ia-58],33 nM,–,–
CC1CCc2c(c3cc(N(C)S(=O)(=O)c4ccc(F)cc4)ccc3n2CC(=O)O)C1 (stereo not drawn) [Ih-5],23 nM,100 to 101 °C,–
CN(C1CCc2c(c3ccccc3n2CC(=O)O)C1)S(=O)(=O)c1ccc(Cc2ccccc2)s1 (stereo not drawn) [Ib-31],59 nM,138 to 140 °C,96 % INH
CN(C1CCc2c(c3ccccc3n2CC(=O)O)C1)S(=O)(=O)c1ccsc1 (stereo not drawn) [Ib-30],5.3 nM,175 to 180 °C,–
Cc1c(C(C)(C)CNS(=O)(=O)c2ccc(F)cc2)c2ccccc2n1CC(=O)O [If-1],19 nM,–,–
O=C(O)Cn1cc(CCCN(Cc2ccccc2)S(=O)(=O)c2ccc(F)cc2)c2ccccc21 [Ia-85],80 nM,–,–
